Reference: ChEMBL document CHEMBL4418493, “N-hydroxyformamide compounds and compositions comprising them for use as BMP1, TLL1 and/or TLL2 inhibitors” (2018)

What was measured:
[1] = Stability in pH 7.96 assessed as compound purity level at 1 mg/ml heated to 40 degC and measured at 200 hrs by LC/MS analsysis; assay type: physicochemical; conditions: buffer, read-out: Stability
[2] = Drug metabolism in heparinized pooled human plasma at pH 7.5 assessed as conversion to active compound at 100 to 2000 ng/ml incubated for 4 by LC-MS/MS analysis; assay type: ADME, cell-free
[3] = Reduction in PICP levels in human cardiac fibroblasts incubated for 24 to 48 hrs by ELISA; assay type: functional
[4] = Drug metabolism in heparinized pooled human plasma at pH 7.5 assessed as formation of N-(((R)-2-((R)-1-(N-hydroxyformamido)propyl)heptanamido)methyl)-5-phenylfuran-2-carboxamide at 100 to 2000 ng/ml incubated up to 4 or 24 hrs by LC-MS/MS analysis; assay type: ADME, cell-free; conditions: pH 7.5, 24 h
[5] = Drug metabolism in heparinized pooled human plasma at pH 7.5 assessed as formation of 4-(5-((((R)-2-((R)-1-(N-hydroxyformamido) propyl)heptanamido)methyl)carbamoyl)furan-2-yl)benzoic acid at 100 to 2000 ng/ml incubated up to 4 or 24 hrs by LC-MS/MS analysis; assay type: ADME, cell-free; conditions: pH 7.5, 24 h
[6] = Reduction in mature collagen deposition levels in human cardiac fibroblasts incubated for 24 to 48 hrs by immunostaining based assay; assay type: functional
[7] = Drug metabolism in heparinized pooled human plasma at pH 7.5 assessed as formation of ((2-ethoxy-4-(5-((((R)-2-((R)-1-(N-hydroxyformamido)propyl)heptanamido)methyl)carbamoyl)furan-2-yl)benzamido)methyl)phosphonic acid at 100 to 2000 ng/ml incubated up to 4 or 24 hrs by LC-MS/MS analysis; assay type: ADME, cell-free; conditions: pH 7.5, 24 h
[8] = Drug metabolism in heparinized pooled human plasma at pH 7.5 assessed as formation of (((3-ethoxy-5-(5-((((R)-2-((R)-1-(N-hydroxyformamido)propyl)heptanamido)methyl)carbamoyl)furan-2-yl)phenyl)(hydroxy)phosphoryl)oxy)methyl isopropyl carbonate at 100 to 2000 ng/ml incubated up to 4 or 24 hrs by LC-MS/MS analysis; assay type: ADME, cell-free; conditions: pH 7.5, 24 h

SMILES	remaining at 200 h, 1 mg/ml [1]	Drug metabolism [2]	IC50 [3]	Drug metabolism [4]	further results
CCCCC[C@@H](C(=O)NCNC(=O)c1ccc(-c2ccccc2)o1)[C@@H](CC)N(C=O)OC(=O)Cc1ccccc1	< 80%	> 10%	< 3.98 µM	Metabolite_Detected	–
CCCCC[C@@H](C(=O)NCNC(=O)c1ccc(-c2ccc(C(=O)OCCN3CCOCC3)cc2)o1)[C@@H](CC)N(O)C=O	–	–	< 3.98 µM	–	Drug metabolism [5]: Metabolite_Detected
CCCCC[C@@H](C(=O)NCNC(=O)c1ccc(-c2ccccc2)o1)[C@@H](CC)N(C=O)OC(=O)OC	< 80%	> 10%	< 3.98 µM	Metabolite_Detected	–
CCCCC[C@@H](C(=O)NCNC(=O)c1ccc(-c2ccccc2)o1)[C@@H](CC)N(C=O)OC(=O)OC(C)(C)C	< 80%	> 10%	< 3.98 µM	Metabolite_Detected	IC50 [6]: < 1 µM
CCCCC[C@@H](C(=O)NCNC(=O)c1ccc(-c2ccc(C(=O)OCC(=O)N(C)C)cc2)o1)[C@@H](CC)N(O)C=O	–	–	< 3.98 µM	–	Drug metabolism [5]: Metabolite_Detected
CCCCC[C@@H](C(=O)NCNC(=O)c1ccc(-c2ccc(C(=O)NCP(=O)(O)O)c(OCC)c2)o1)[C@@H](CC)N(C=O)OC(=O)c1ccc(CN2CCOCC2)cc1C.O=C(O)C(F)(F)F	–	–	< 3.98 µM	–	Drug metabolism [7]: Metabolite_Detected
CCCCC[C@@H](C(=O)NCNC(=O)c1ccc(-c2ccc(C(=O)NCP(=O)(O)O)c(OCC)c2)o1)[C@@H](CC)N(C=O)OC(=O)c1ccc(OC)cc1	–	–	< 3.98 µM	–	IC50 [6]: < 1 µM; Drug metabolism [7]: Metabolite_Detected
CCCCC[C@@H](C(=O)NCNC(=O)c1ccc(-c2ccc(C(=O)NCP(=O)(O)O)c(OCC)c2)o1)[C@@H](CC)N(C=O)OC(=O)c1ccccc1	–	–	< 3.98 µM	–	Drug metabolism [7]: Metabolite_Detected
CCCCC[C@@H](C(=O)NCNC(=O)c1ccc(-c2ccccc2)o1)[C@@H](CC)N(C=O)OC(=O)c1ccccc1	< 80%	> 10%	< 3.98 µM	Metabolite_Detected	–
CCCCC[C@@H](C(=O)NCNC(=O)c1ccc(-c2ccccc2)o1)[C@@H](CC)N(C=O)OC(=O)C(C)(C)C	< 80%	> 10%	< 3.98 µM	Metabolite_Detected	–
CCCCC[C@@H](C(=O)NCNC(=O)c1ccc(-c2ccc(C(=O)NCP(=O)(O)O)c(OCC)c2)o1)[C@@H](CC)N(C=O)OC(=O)c1ccc(OC)cc1C	–	–	< 3.98 µM	–	Drug metabolism [7]: Metabolite_Detected
CCCCC[C@@H](C(=O)NCNC(=O)c1ccc(-c2ccc(C(=O)O)cc2)o1)[C@@H](CC)N(C=O)OC(=O)c1ccccc1	–	–	–	–	Drug metabolism [5]: Metabolite_Detected
CCCCC[C@@H](C(=O)NCNC(=O)c1ccc(-c2ccccc2)o1)[C@@H](CC)N(C=O)OCOP(=O)(O)O.N.N	–	–	–	Metabolite_Detected	–
CCCCC[C@@H](C(=O)NCNC(=O)c1ccc(-c2ccc(C(=O)OCCc3ccccc3)cc2)o1)[C@@H](CC)N(O)C=O	–	–	< 3.98 µM	–	Drug metabolism [5]: Metabolite_Detected
CCCCC[C@@H](C(=O)NCNC(=O)c1ccc(-c2cc(OCC)cc(P(=O)(OCOC(=O)OC(C)C)OCOC(=O)OC(C)C)c2)o1)[C@@H](CC)N(O)C=O	–	–	–	–	Drug metabolism [8]: Metabolite_Detected
